The text below walks through data of US20210292315A1, “SELENIUM-CONTAINING ISOXAZOLAMINE COMPOUND, PREPARATION METHOD THEREFOR, AND USE THEREOF” (SHANGHAI XINGYE PHARMACEUTICAL TECHNOLOGY CO., LTD, priority 2018, published 2021).

Experiment [1] can be described thus: Glutathione peroxidase (GPx)-like activity assay, coupled NADPH oxidation at 340 nm. In kind it is biochemical. To be noted: compound 50 μm, GSH 2.0 mM, pH 7.5, 25° C.; for Initial rate v0, Cum-OOH: peroxide Cum-OOH 1.6 mM; for Initial rate v0, H2O2: peroxide H2O2 1.6 mM; for Initial rate v0, tBuOOH: peroxide tBuOOH 1.6 mM. As for the experimental part: Method: GPX activity of selenium compounds was assayed by ultraviolet spectrophotometry. Glutathione (2.0 mM), EDTA (1 mM), glutathione disulfide reductase (1.7 units mL^−1), and nicotinamide adenine dinucleotide phosphate […] (NADPH; 0.4 mM) were mixed intopotassium phosphate buffer (0.1 M, pH=7.5). The selenium compounds (50 μm) was added to the above mixture At room temperature (25° C.), and the reaction was started by the addition of H2O2, tBuOOH or Cum-OOH (1.6 mM) respectively. The initial reduction rates were calculated from the rate of NADPH oxidation at 340 nm in a GSH assay. Each initial rate was measured at least three times and calculated from the first 5-10% of the reaction by using 6.22 mM^−1 cm^−1 as the molar extinction coefficient for NADPH. For the peroxidase activity, the rates were corrected for the background reaction between peroxide and thiol.

Experiment [2] addresses T1, Thioredoxin Reductase 1 (TrxR1) (Homo sapiens, UniProt Q16881).
T1 sequence (Q16881 151-649 limits assumed): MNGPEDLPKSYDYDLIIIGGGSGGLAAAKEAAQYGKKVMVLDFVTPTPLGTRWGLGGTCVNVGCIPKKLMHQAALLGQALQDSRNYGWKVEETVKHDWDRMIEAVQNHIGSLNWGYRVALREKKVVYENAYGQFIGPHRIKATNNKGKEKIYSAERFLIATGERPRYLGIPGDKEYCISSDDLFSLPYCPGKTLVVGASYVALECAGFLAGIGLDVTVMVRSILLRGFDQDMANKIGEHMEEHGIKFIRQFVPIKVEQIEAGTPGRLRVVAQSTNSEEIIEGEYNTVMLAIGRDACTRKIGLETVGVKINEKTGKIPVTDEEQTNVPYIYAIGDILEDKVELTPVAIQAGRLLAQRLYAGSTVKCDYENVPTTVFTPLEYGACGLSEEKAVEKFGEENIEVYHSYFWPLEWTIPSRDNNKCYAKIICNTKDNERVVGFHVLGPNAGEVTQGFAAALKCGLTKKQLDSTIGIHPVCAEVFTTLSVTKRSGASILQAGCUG
Put plainly: Thioredoxin reductase 1 (TrxR1) activity inhibiting assay, NADPH consumption at 340 nm. The class given is biochemical. To be noted: insulin/Trx/NADPH system, absorbance 340 nm; read-out: TrxR inhibition IC50. As for the experimental part:
Working solutions: 0.119 mg/mL of TrxR working solution preparation: 175 μL of TrxR stock solution (0.34 mg/mL) was diluted to 500 μL; 1 mM NADPH working solution preparation, NADPH (5 mg) was dissolved in 12 mL potassium phosphate buffer; 1 mM DTNB working solution preparation: 25 mg DTNB was dissolve in 63 mL DMSO; potassium phosphate buffer system preparation: 0.2 mg/mL bovine serum albumin (BSA) and 1 mM EDTA were added to potassium phosphate buffer at pH 7.4 (K2HPO4/KH2PO4).
Methods: The TrxR1 inhibitory activity study of selenium-containing isoxazolamines in vitro. Insulin, NADPH, Trx, the samples and TrxR1 were added to a microcuvette in order, and subsequently added the work buffer (0.1 mol/L potassium phosphate/2 mmol/L EDTA) to a total volume of 0.5 mL. The concentration of each component in the obtained reaction system is: insulin 130 μmol/L, NADPH […] (Sigma), Trx 4 μmol/L, the added substrate (the selenium-containing isoxazolamines treated samples). After determination of the initial absorption at 340 nm, the enzymatic reaction was started by adding 20 μg extracted TrxR1 proteins, the decrease in absorbance at 340 nm was monitored. One unit of enzymatic activity is defined as the consumption. The activity can be calculated from the extinction coefficient of NADPH, and the unit of enzyme activity is defined as: 1U=ΔA340 nm/min×1000, the TR activity could be calculated with U/L. The results are shown in table 2.

The next experiment deals with TNF-α. The experiment is described as follows: TNF-α activity inhibiting assay: LPS-stimulated peripheral blood, TNF-α by ELISA. In kind it is cell-based, human. The following applies: Homo sapiens, LPS 10 ng/mL, 6 hours, diluted peripheral blood from healthy volunteers, read-out: TNF-α inhibition (%). As for the experimental part: Methods: Peripheral blood from healthy volunteers was collected with EDTA anticoagulant tubes. After being diluted 5-fold with 1640 medium (Gibco, USA), the blood was added to 96-well cell culture plates (Costar, USA) and then treated with 10 μL solution of the compound of general formula (I) of the present invention in DMSO (Sigma, USA), and the final concentration of DMSO was 0.2%. After incubation for 60 minutes in an incubator at 37° C. under 5% CO2, 10 μL LPS (Sigma, USA) was added to the reaction system, and the final concentration was 10 ng/mL. After further culturing for 6 hours in the incubator at 37° C. under 5% CO2, the supernatant was collected. The content of TNF-α was determined by ELISA (BD Biosciences, USA). Absorbance was detected at OD450 nm with a microplate reader, with GD 650 nm as reference. The control, a solution containing 0.2% DMSO medium, was as 0% inhibition. Raw data and standard curves were recorded. The four-parameter drug inhibition curve was plotted by XL-fit software and the inhibition rate of each compound was calculated.

For `COc1ccc2[se]n(C3CCC(=O)NC3=O)c(=O)c2c1` (stereo not drawn) [Compound 12], in experiment [1], the “Initial rate v0, Cum-OOH” value came to 116.8 ± 7.2 μm min^−1; the “Initial rate v0, H2O2” value amounted to 121.7 ± 2.2 μm min^−1; the “Initial rate v0, tBuOOH” value is 54.5 ± 5.7 μm min^−1. Besides, the IC50 in experiment [2] is under 5 µM. Also, the IC50 in the experiment on TNF-α is 1 to 10 µM.

With `O=c1c2ccccc2[se]n1-c1nc2ccccc2s1` [Compound 21], in experiment [1], the “Initial rate v0, Cum-OOH” value was 94.5 ± 4.2 μm min^−1; the “Initial rate v0, H2O2” value was 115.3 ± 2.6 μm min^−1; the “Initial rate v0, tBuOOH” value is 35.7 ± 4.2 μm min^−1. Moreover, the IC50 in experiment [2] lay in the range of 5 to 50 µM. In addition, the IC50 in the experiment on TNF-α was 10 to 100 µM.

Consider `O=C1c2ccccc2[Se](=O)N1c1nc2ccc(OC(F)(F)F)cc2s1` (stereo not drawn) [Compound 34], for which, in experiment [1], the “Initial rate v0, Cum-OOH” value is 12.4 ± 0.3 μm min^−1; the “Initial rate v0, H2O2” value turned out to be 39.7 ± 1.4 μm min^−1; the “Initial rate v0, tBuOOH” value turned out to be 14.2 ± 1.1 μm min^−1. In addition, the IC50 in experiment [2] is 50 to 100 µM. The IC50 in the experiment on TNF-α fell in the range of 10 to 100 µM.
